Measured values: patent publication US8697691B2, “Alkyl 3-((2-amidoethyl)amino)-8-azabicyclo[3.2.1]octane-8-carboxylate analogs as selective M1 agonists and methods of making and using same” (Vanderbilt University, priority 2009, dated 2014)
Where two headings read alike, the source gives them in different places.

Target: T1, human M1 receptor (Homo sapiens, UniProt P11229)
T1 construct: host or cells: CHO-K1
T1 sequence (P11229 1-460): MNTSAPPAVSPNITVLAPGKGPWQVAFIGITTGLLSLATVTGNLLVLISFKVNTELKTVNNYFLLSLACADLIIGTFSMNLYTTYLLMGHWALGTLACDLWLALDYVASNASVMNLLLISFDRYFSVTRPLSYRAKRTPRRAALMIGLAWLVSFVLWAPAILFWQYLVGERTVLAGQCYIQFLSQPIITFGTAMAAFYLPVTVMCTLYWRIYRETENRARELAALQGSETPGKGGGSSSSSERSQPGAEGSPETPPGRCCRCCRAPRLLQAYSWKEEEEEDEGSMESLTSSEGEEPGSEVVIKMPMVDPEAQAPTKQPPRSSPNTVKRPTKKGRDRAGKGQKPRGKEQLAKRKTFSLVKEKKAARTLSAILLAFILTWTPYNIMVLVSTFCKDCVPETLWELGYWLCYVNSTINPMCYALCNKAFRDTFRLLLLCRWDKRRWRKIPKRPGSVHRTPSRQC
Assay: Calcium mobilization assay, CHO-K1 cells stably expressing hM1 (high throughput, FDSS 6000)
Type: cell-based
Conditions: for Emax: CHO-K1, read-out: Efficacy (% Max ACh)
From the text: Chinese hamster ovary (CHO-K1) cells stably expressing rat (r)M1 were purchased from the American Type Culture Collection and cultured according to their indicated protocol. CHO cells stably expressing human (h)M2, hM3, and hM5 were described previously (Levey et al., 1991); hM1 and hM4 cDNAs were purchased from Missouri S&T cDNA Resource; rM4 cDNA was provided by T. I. Bonner (National Institutes of Health, Bethesda, Md.). hM1, hM4, and rM4 cDNAs were used to stably transfect CHO-K1 cells purchased from the American Type Culture Collection using Lipofectamine2000. To make stable hM2, hM4 and rM4 cell lines for use in calcium mobilization assays, these cells also were stably transfected with a chimeric G-protein (Gqi5) (provided by B. R. Conklin, University of California, San Francisco) using Lipofectamine 2000. rM1, hM3, and hM5 cells were grown in Ham's F-12 medium containing 10% heat-inactivated fetal bovine serum (FBS), 20 mM HEPES, and 50 μg/mL G418 sulfate. hM2-Gqi5 and hM4-Gqi5 cells were grown in the same medium also containing 500 μg/mL Hygromycin B. Stable rM4-Gqi5 cells were grown in DMEM containing 10% heat-inactivated FBS, 20 mM HEPES, 400 μg/mL G418 sulfate, and 500 μg/mL Hygromycin B. The rat M1 Y381A orthosteric mutant receptor cDNA was generated using the Quik-Change site-directed mutagenesis kit (Stratagene) and verified by sequencing. CHO-K1 cells were stably transfected with this cDNA using Lipofectamine2000 and screened for expression based on calcium mobilization in response to the allosteric M1 agonist N-desmethylclozapine.
For high throughput measurement of agonist-evoked increases in intracellular calcium, CHO-K1 cells stably expressing muscarinic receptors were plated in growth medium lacking G418 and hygromycin at 15,000 cells/20 μL/well (hM1, hM2-Gqi5, hM3, hM4-Gq15, and hM5) in Greiner 384-well black-walled, tissue culture (TC)-treated, clear-bottom plates (VWR). Cells were incubated overnight at 37° C. and 5% CO2. The next day, cells were washed using an ELX 405 (BioTek) with three washes (50 μL) of assay buffer then aspirated to 15 μL. Next, 5 μL of 8 μM Fluo-4/acetoxymethyl ester (Invitrogen, Carlsbad, Calif.) prepared as a 2.3 mM stock in DMSO and mixed in a 1:1 ratio with 10% (w/v) Pluronic F-127 and diluted in assay buffer was added to the wells and the cell plates were incubated for 45 min at 37° C. and 5% CO2. Dye was removed by washing with the ELX 405 (three 50 μL washes of assay buffer) then aspirated to 20 μL. Agonist and compound master plates were formatted in an 11 point CRC format (1:3 dilutions) in 100% DMSO with a starting concentration of 10 mM using the BRAVO liquid handler (Agilent). Test compound CRCs were then transferred to daughter plates ([…]) using the Echo acoustic plate reformatter (Labcyte, Sunnyvale, Calif.) and then diluted into assay buffer (40 μL) to a 2× stock using a Thermo Fisher Combi (Thermo Fisher Scientific, Waltham, Mass.). Calcium flux was measured using the Functional Drug Screening System (FDSS) 6000 (Hamamatsu Corporation, Tokyo, Japan) as an increase in the fluorescent static ratio. 20 μL of Agonist Compounds were applied to cells using the automated system of the FDSS 6000 at 4 s into the 300 s protocol and the data were collected at 1 Hz. Concentration-response curves were generated using a four-parameter logistical equation in XLfit curve fitting software (IDBS, Bridgewater, N.J.) for Excel (Microsoft, Redmond, Wash.) or Prism (GraphPad Software, Inc., San Diego, Calif.).

`CCOC(=O)N1[C@@H]2CC[C@H]1C[C@@H](NCCNC(=O)c1ccccc1)C2` [Example 27, ethyl 3-((3-endo)-(2-benzamidoethyl)amino)-8-azabicyclo[3.2.1]octane-8-carboxylate] gave an EC50 of 214 nM, an Emax of 37% and an EC50 (human M1, agonist-evoked calcium mobilization in CHO-K1 cells, read-out: Potency (EC50)) of 210 nM.

Compound `CCOC(=O)N1[C@@H]2CC[C@H]1C[C@H](NCCNC(=O)c1ccccc1)C2` [Example 26, ethyl 3-((3-exo)-(2-benzamidoethyl)amino)-8-azabicyclo[3.2.1]octane-8-carboxylate] has an Emax of 57% and an EC50 (figure legends FIG. 1.0, 1.1, dose response data, read-out: EC50 for hM1) of 1200 nM.
